In paper PMC11202169, “A Novel Fluorescence-Based Microplate Assay for High-Throughput Screening of hSULT1As Inhibitors” (Biosensors, 2024):
Like-named read-outs stand apart in the source and are kept apart here.

Tests used:
Assay type in all cases: biochemical
hSULT1A1 = target: T1, hSULT1A1 (Homo sapiens, UniProt P50225); assay: Fluorescence-based microplate inhibition assay, hSULT1A1-catalyzed HN-241 4-O-sulfation; details: for activity at 1 µM: read-out: Residue activity (%) hSULT1A1; for IC50: hSULT1A1-catalyzed HN-241 4-O-sulfation;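 on all read-outs here: reaction started with 200 µM PAPS at 37 °C, fluorescence read continuously (Ex 350 nm, Em 450 nm), activity expressed relative to DMSO-only control without inhibitor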
T1 construct: 6-histidine tag (N); TEV site (N); made in house; host or cells: Escherichia coli BL21 (DE3), pET29a(+)
T1 sequence (P50225 whole entry): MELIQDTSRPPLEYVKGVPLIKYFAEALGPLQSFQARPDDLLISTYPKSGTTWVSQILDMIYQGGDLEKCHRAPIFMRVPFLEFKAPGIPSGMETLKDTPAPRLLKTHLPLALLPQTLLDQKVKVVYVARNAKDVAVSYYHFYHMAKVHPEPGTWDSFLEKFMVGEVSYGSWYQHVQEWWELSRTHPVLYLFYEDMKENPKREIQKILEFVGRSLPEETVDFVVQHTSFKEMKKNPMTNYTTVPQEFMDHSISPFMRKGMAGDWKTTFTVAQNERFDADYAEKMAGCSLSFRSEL

hSULT1A2 = target: T2, hSULT1A2 (Homo sapiens, UniProt P50226); assay: Fluorescence-based microplate inhibition assay, hSULT1A2-catalyzed HN-241 4-O-sulfation; details: for remaining activity at 10 µM: 0.25 h, read-out: Residue activity (%) hSULT1A2; for IC50: hSULT1A2-catalyzed HN-241 4-O-sulfation
T2 construct: 6-histidine tag (N); TEV site (N); made in house; host or cells: Escherichia coli BL21 (DE3), pET29a(+)
T2 sequence (P50226 whole entry): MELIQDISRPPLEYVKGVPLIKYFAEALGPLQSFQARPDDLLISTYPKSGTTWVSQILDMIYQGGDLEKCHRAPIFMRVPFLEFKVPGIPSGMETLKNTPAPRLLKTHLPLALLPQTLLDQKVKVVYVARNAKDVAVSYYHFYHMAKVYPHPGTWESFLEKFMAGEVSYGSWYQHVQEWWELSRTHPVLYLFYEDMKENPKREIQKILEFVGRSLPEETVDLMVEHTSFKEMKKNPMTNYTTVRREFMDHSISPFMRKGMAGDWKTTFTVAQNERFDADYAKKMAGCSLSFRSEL

hSULT1A3 = target: T3, hSULT1A3 (Homo sapiens, UniProt P0DMM9); assay: Fluorescence-based microplate inhibition assay, hSULT1A3-catalyzed HN-241 4-O-sulfation; details: for activity at 10 µM: read-out: Residue activity (%) hSULT1A3; for IC50: hSULT1A3-catalyzed HN-241 4-O-sulfation
T3 construct: 6-histidine tag (N); TEV site (N); made in house; host or cells: Escherichia coli BL21 (DE3), pET29a(+)
T3 sequence (P0DMM9 whole entry): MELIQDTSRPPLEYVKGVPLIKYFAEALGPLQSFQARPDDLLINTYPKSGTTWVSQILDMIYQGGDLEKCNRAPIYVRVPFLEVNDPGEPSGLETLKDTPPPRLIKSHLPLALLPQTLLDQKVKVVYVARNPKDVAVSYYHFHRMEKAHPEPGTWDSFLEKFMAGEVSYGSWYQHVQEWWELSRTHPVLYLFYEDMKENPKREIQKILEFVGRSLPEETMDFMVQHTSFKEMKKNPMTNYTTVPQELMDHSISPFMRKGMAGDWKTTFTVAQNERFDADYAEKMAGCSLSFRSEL

[1] = test compound 1 μM, HN-241 1 μM, 15 min
[2] = test compound 10 μM, HN-241 5 μM, 15 min
[3] = test compound 10 μM, HN-241 10 μM, 15 min

SMILES | Residue activity (%) hSULT1A1 (hSULT1A1; [1]) [%] | Residue activity (%) hSULT1A2 (hSULT1A2; [2]) [%] | Residue activity (%) hSULT1A3 (hSULT1A3; [3]) [%] | activity at 1 µM (hSULT1A1; [1]) [%] | remaining activity at 10 µM (hSULT1A2; [2]) [%] | activity at 10 µM (hSULT1A3; [3]) [%] | also measured
CC(C)=CC/C=C(/C)[C@H]1CC[C@]2(C)[C@@H]1[C@H](O)C[C@@H]1[C@@]3(C)CC[C@H](O)C(C)(C)[C@@H]3[C@@H](O[C@@H]3O[C@H](CO)[C@@H](O)[C@H](O)[C@H]3O[C@@H]3O[C@@H](C)[C@H](O)[C@@H](O)[C@H]3O)C[C@]12C [Ginsenoside F4] | 99.89 | 89.89 | 99.83 |  |  |  | 
CC(C)=CCC[C@](C)(O)[C@H]1CC[C@]2(C)[C@@H]1[C@H](O)C[C@@H]1[C@@]3(C)CC[C@H](O)C(C)(C)[C@@H]3[C@@H](O[C@@H]3O[C@H](CO)[C@@H](O)[C@H](O)[C@H]3O[C@@H]3O[C@H](CO)[C@@H](O)[C@H](O)[C@H]3O)C[C@]12C [Ginsenoside Rf] |  |  |  | 102 | 104 | 104 | 
CC(C)=CCC[C@](C)(O)[C@H]1CC[C@]2(C)[C@@H]1[C@H](O)C[C@@H]1[C@@]3(C)CC[C@H](O)C(C)(C)[C@@H]3[C@@H](O[C@@H]3O[C@H](CO)[C@@H](O)[C@H](O)[C@H]3O[C@@H]3O[C@@H](C)[C@H](O)[C@@H](O)[C@H]3O)C[C@]12C [Ginsenoside Rg2] |  |  |  | 113 | 106 | 100 | 
C=C(CCC=C(C)C)[C@H]1CC[C@]2(C)[C@@H]1[C@H](O)C[C@@H]1[C@@]3(C)CC[C@H](O)C(C)(C)[C@@H]3[C@@H](O[C@@H]3O[C@H](CO)[C@@H](O)[C@H](O)[C@H]3O[C@@H]3O[C@@H](C)[C@H](O)[C@@H](O)[C@H]3O)C[C@]12C [Ginsenoside Rg6] | 100.32 | 103.59 | 124.68 |  |  |  | 
CC(C)=CCC[C@](C)(O)[C@H]1CC[C@]2(C)[C@@H]1[C@H](O)C[C@@H]1[C@@]3(C)CC[C@H](O)C(C)(C)[C@@H]3[C@@H](O[C@@H]3O[C@H](CO)[C@@H](O)[C@H](O)[C@H]3O)C[C@]12C [Ginsenoside Rh1] |  |  |  | 114 | 96.5 | 100 | 
C=C(CCC=C(C)C)[C@H]1CC[C@]2(C)[C@@H]1[C@H](O)C[C@@H]1[C@@]3(C)CC[C@H](O[C@@H]4O[C@H](CO)[C@@H](O)[C@H](O)[C@H]4O)C(C)(C)[C@@H]3CC[C@]12C [Ginsenoside Rk2] | 97.02 | 106.88 | 94.83 |  |  |  | 
COc1cc2c(=O)c(-c3ccc(O)cc3)coc2cc1O[C@@H]1O[C@H](CO)[C@@H](O)[C@H](O)[C@H]1O [Glycitin] | 98.37 | 97.40 | 114.83 |  |  |  | 
CC1(C)[C@@H](O[C@H]2O[C@H](C(=O)O)[C@@H](O)[C@H](O)[C@H]2O[C@@H]2O[C@H](C(=O)O)[C@@H](O)[C@H](O)[C@H]2O)CC[C@]2(C)[C@H]3C(=O)C=C4[C@@H]5C[C@@](C)(C(=O)O)CC[C@]5(C)CC[C@@]4(C)[C@]3(C)CC[C@@H]12 [Glycyrrhizic acid] |  |  |  | 106 | 112 | 121 | 
O=c1cc(-c2ccc(Oc3c(O)cc4oc(-c5ccc(O)cc5)cc(=O)c4c3O)cc2)oc2cc(O)cc(O)c12 [Hinokiflavone] |  |  |  | 0 | 0 | 9.46 | IC50 (hSULT1A1): 18.9 ± 1.17 nM; IC50 (hSULT1A2): 110 ± 14.7 nM; IC50 (hSULT1A3): 2.13 ± 0.182 µM
COc1ccc(-c2oc3c(CC=C(C)C)c(O[C@@H]4O[C@H](CO)[C@@H](O)[C@H](O)[C@H]4O)cc(O)c3c(=O)c2O[C@@H]2O[C@@H](C)[C@H](O)[C@@H](O)[C@H]2O)cc1 [Icariin] |  |  |  | 85.5 | 85.1 | 105 | 
COc1ccc(-c2oc3c(CC=C(C)C)c(O[C@@H]4O[C@H](CO)[C@@H](O)[C@H](O)[C@H]4O)cc(O)c3c(=O)c2O)cc1 [Icariside I] | 91.81 | 103.62 | 104.97 |  |  |  | 
CC(C)=CCOc1c2occc2cc2ccc(=O)oc12 [Imperatorin] |  |  |  | 101 | 94.3 | 128 | 
CC(C)Oc1ccc2c(=O)c(-c3ccccc3)coc2c1 [Ipriflavone] |  |  |  | 61.3 | 89.5 | 117 | 
CC(C)=CCOc1c2ccoc2cc2oc(=O)ccc12 [Isoimperatorin] |  |  |  | 92.5 | 106 | 92.1 | 
COc1cc(-c2oc3cc(O)cc(O)c3c(=O)c2O)ccc1O [Isorhamnetin] |  |  |  | 1.36 | 0.39 | 58.3 | 
COc1cc(O)c(CC=C(C)C)c2c1C(=O)CC(c1ccc(O)cc1)O2 (stereo not shown) [Isoxanthohumol] |  |  |  | 15.8 | 68.4 | 88 | 
COc1c(/C=C/C(=O)c2ccc(O)c(CC=C(C)C)c2)ccc(O)c1O [Licochalcone D] |  |  |  | 0 | 0.21 | 30.9 | IC50 (hSULT1A1): 5.37 ± 0.18 nM
O=C1C[C@@H](c2ccc(O)cc2)Oc2cc(O)ccc21 [Liquiritigenin] | 58.91 | 25.92 | 76.68 |  |  |  | 
O=C1C[C@@H](c2ccc(O[C@@H]3O[C@H](CO)[C@@H](O)[C@H](O)[C@H]3O)cc2)Oc2cc(O)ccc21 [Liquiritin] |  |  |  | 100 | 95.1 | 100 | 

SMILES | Residue activity (%) hSULT1A1 (hSULT1A1; [1]) [%] | Residue activity (%) hSULT1A2 (hSULT1A2; [2]) [%] | Residue activity (%) hSULT1A3 (hSULT1A3; [3]) [%] | activity at 1 µM (hSULT1A1; [1]) [%] | remaining activity at 10 µM (hSULT1A2; [2]) [%] | activity at 10 µM (hSULT1A3; [3]) [%] | also measured
C[C@@H]1[C@H]2[C@H](O[C@@H]3O[C@H](CO)[C@@H](O)[C@H](O)[C@H]3O)OC=C(C(=O)O)[C@H]2C[C@@H]1O [Loganic acid] |  |  |  | 128 | 98.6 | 119 | 
COc1cc(OC)c(CCC(=O)c2ccc(O)cc2)c(OC)c1 [Loureirin B] | 5.84 | 6.16 | 71.91 |  |  |  | 
COC(=O)/C=C/c1ccc(O)c(O)c1 [Methyl caffeate acid] | 9.01 | 12.99 | 44.99 |  |  |  | 
Cc1c(O)c(C)c2c(c1O)C(=O)[C@H](Cc1ccc3c(c1)OCO3)CO2 [Methylophiopogonanone A] | 28.87 | 0.52 | 79.90 |  |  |  | 
O=c1c(O)c(-c2ccc(O)cc2O)oc2cc(O)cc(O)c12 [Morin] |  |  |  | 50.7 | 4.73 | 55.7 | 
CC(C)=CCc1c(-c2ccc(O)cc2O)oc2c(CC=C(C)C)c(O)cc(O)c2c1=O [Mulberrin] | 53.37 | 143.65 | 70.86 |  |  |  | 
O=c1c(O)c(-c2cc(O)c(O)c(O)c2)oc2cc(O)cc(O)c12 [Myricetin] |  |  |  | 0.08 | 4.43 | 39.8 | 
COc1cc(-c2oc3cc(O)cc(O)c3c(=O)c2O[C@@H]2O[C@H](CO[C@@H]3O[C@@H](C)[C@H](O)[C@@H](O)[C@H]3O)[C@@H](O)[C@H](O)[C@H]2O)ccc1O [Narcissoside] | 99.20 | 86.78 | 60.08 |  |  |  | 
O=C(/C=C/c1ccc(O[C@@H]2O[C@H](CO)[C@@H](O)[C@H](O)[C@H]2O)cc1)c1ccc(O)cc1O [Neoisoliquiritigenin] | 91.36 | 84.48 | 108.00 |  |  |  | 
CC1(C)CC[C@]2(C(=O)O)CC[C@]3(C)C(=CC[C@@H]4[C@@]5(C)CC[C@H](O)C(C)(C)[C@@H]5CC[C@]43C)[C@@H]2C1 [Oleanolic acid] |  |  |  | 127 | 101 | 114 | 
CCCCCCCCCCCCCCCC(=O)O [Palmitic acid] |  |  |  | 93.1 | 84.8 | 113 | 
COc1ccc(-c2cc(=O)c3c(O)c(OC)c(O)cc3o2)cc1 [Pectolinarigenin] |  |  |  | 1.12 | 0 | 1.34 | IC50 (hSULT1A1): 9.52 ± 0.39 nM; IC50 (hSULT1A2): 87.2 ± 3.16 nM; IC50 (hSULT1A3): 4.36 ± 0.252 µM
COc1cc([C@@H]2c3cc4c(cc3[C@H](O)[C@H]3COC(=O)[C@H]23)OCO4)cc(OC)c1OC [Podophyllotoxin] |  |  |  |  |  |  | activity at 1 µM (hSULT1A1): 110%; remaining activity at 10 µM (hSULT1A2): 88.9%; activity at 10 µM (hSULT1A3): 111%
O=c1c(O)c(-c2ccc(O)c(O)c2)oc2cc(O)cc(O)c12 [Quercetin, reference compound] |  |  |  | 0 | 0.1 | 39.9 | 
C[C@]12CC[C@H](O)C[C@H]1CC[C@@H]1[C@@H]2CC[C@]2(C)[C@@H](c3ccc(=O)oc3)C[C@H]3O[C@]132 [Resibufogenin] |  |  |  |  |  |  | activity at 1 µM (hSULT1A1): 127%; remaining activity at 10 µM (hSULT1A2): 99.2%; activity at 10 µM (hSULT1A3): 113%
O=C(O)c1cc(O)c2c(c1)C(=O)c1cccc(O)c1C2=O [Rhein] |  |  |  | 59.4 | 0.83 | 96.9 | 
C=C(C)[C@H]1Cc2c(ccc3c2O[C@@H]2COc4cc(OC)c(OC)cc4[C@@H]2C3=O)O1 [Rotenone] |  |  |  |  |  |  | activity at 1 µM (hSULT1A1): 109%; remaining activity at 10 µM (hSULT1A2): 102%; activity at 10 µM (hSULT1A3): 106%
COc1cc2c(c(OC)c1OC)-c1c(cc(OC)c(OC)c1OC)C[C@](C)(O)[C@@H](C)C2 [Schisandrin] | 129.29 | 102.92 | 123.25 |  |  |  | 
